Experimental findings from ChEMBL document CHEMBL1201862, “PubChem BioAssay data set” (2004) are described below.

Active and inactive are the calls of the source.

The target in assay [1] is Cytochrome P450 2C9 (Homo sapiens, UniProt P11712).
Assay [2] concerns the target T1, Cytochrome P450 1A2 (Homo sapiens, UniProt P05177).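 Note: PubChem cytochrome P450 panel assay, CYP1A2 panel member.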
T1 sequence (P05177 whole entry): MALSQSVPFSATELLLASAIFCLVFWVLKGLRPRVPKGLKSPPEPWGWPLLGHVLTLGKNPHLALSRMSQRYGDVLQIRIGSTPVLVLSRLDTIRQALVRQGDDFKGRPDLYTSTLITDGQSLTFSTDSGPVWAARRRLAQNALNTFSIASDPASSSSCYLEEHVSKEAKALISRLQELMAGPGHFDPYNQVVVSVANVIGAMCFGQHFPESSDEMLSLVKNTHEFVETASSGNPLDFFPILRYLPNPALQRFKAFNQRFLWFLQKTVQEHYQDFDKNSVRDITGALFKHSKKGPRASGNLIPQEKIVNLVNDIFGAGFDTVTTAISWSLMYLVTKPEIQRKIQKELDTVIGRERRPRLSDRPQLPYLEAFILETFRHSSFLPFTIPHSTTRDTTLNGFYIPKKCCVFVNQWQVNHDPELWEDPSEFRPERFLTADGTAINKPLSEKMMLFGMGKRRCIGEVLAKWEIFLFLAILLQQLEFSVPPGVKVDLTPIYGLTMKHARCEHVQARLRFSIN

Assay [3] addresses Cytochrome P450 3A4 (Homo sapiens, UniProt P08684).
Assay [4] has as its target Cytochrome P450 2D6 (Homo sapiens, UniProt P10635).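 Note: CYP2D6 member of a cytochrome P450 panel assay.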
Assay [5] is described as follows: Luminescence Cell-Based Dose Retest to Confirm Inhibitors of Cancer Stem Cells. [Related pubchem assays (depositor defined):AID2717, AID2721]. The format is functional. The settings on record: Homo sapiens.
Assay [6] in a line: growth suppression of PTEN-null colon cells, dose response, cell-based, HCT116 PTEN knockout (AID 1047).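 Note: HCT116 colon tumor cells with PTEN knocked out; cells exposed to compound for 60 hours before readout; potency for loss of cell viability measured by luminescence.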 In kind it is functional.
In assay [7] the test system is Streptococcus. Description: Group A Streptococcus viability loss, dose response, counter-screen for streptokinase expression inhibitor project, luminescence, BacTiterGlo (AID 1915).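 Note: potency for reduction of bacterial viability or growth.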 In kind it is functional, organism-based.
The nature of assay [8]: growth suppression of beta-catenin-knockout colon cells, dose response, cell-based, HCT116, human colon tumor (AID 1045).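 Note: HCT116 colon tumor cells with beta catenin knocked out; cells exposed to compound for 60 hours.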 In kind it is functional.
Assay [9] concerns Streptococcus sp. 'group A'. Kind of assay: growth inhibition of control SK(-) GAS strain, dose response, counter-screen for streptokinase expression inhibitor project, luminescence, kanamycin, BacTiterGlo, confirmation (AID 1900). The format is functional, organism-based.
Assay [10] deals with T2, Corticotropin-releasing factor receptor 2/Corticotropin-releasing factor-binding protein (Homo sapiens, UniProt P24387+Q13324).
T2 sequence (Q13324 whole entry): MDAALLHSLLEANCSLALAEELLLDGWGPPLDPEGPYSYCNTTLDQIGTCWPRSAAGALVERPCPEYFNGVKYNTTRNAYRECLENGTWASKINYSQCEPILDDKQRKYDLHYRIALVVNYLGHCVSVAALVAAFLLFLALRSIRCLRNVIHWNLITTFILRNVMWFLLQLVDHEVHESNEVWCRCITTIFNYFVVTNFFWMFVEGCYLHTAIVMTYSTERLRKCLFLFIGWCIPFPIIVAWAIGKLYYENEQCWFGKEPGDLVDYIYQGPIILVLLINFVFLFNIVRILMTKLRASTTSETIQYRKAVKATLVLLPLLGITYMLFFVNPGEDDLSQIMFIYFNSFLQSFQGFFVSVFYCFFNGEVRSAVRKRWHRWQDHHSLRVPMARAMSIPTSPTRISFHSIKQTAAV
T2 sequence (P24387 whole entry): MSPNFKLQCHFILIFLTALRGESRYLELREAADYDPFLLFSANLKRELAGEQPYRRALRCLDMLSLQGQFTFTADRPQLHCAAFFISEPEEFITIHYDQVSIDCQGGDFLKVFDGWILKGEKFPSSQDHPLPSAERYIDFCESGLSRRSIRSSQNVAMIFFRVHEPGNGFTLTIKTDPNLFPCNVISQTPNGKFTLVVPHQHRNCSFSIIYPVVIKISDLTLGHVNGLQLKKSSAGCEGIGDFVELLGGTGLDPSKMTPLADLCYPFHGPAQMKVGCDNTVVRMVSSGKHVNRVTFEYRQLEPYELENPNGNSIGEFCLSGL
Description: activators of CRF receptor 2 with binding protein – uHTS hits, confirmation (AID 602473). The note with it: read-out: EC50_Mean. The format is functional.

Assay [11] deals with T3, Calpain-2 catalytic subunit (Sus scrofa, UniProt P43367).
T3 sequence (P43367 whole entry): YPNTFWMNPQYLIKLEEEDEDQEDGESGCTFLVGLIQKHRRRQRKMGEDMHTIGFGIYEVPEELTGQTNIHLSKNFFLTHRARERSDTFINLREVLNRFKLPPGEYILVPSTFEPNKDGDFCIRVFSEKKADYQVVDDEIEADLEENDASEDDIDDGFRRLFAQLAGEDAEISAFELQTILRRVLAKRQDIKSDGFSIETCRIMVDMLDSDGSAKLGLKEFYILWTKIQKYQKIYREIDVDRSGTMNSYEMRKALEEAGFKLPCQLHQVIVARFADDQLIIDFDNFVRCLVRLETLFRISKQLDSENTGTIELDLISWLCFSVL
Kind of assay: pig calpain II inhibitor potency, dose response, biochemical, fluorogenic peptide substrate (AID 1420). The format is functional.

The nature of assay [12]: cells. In kind it is functional.
Assay [13] has as its target T4, Streptokinase A (Streptococcus pyogenes serotype M1, UniProt P10520).
T4 sequence (P10520 whole entry): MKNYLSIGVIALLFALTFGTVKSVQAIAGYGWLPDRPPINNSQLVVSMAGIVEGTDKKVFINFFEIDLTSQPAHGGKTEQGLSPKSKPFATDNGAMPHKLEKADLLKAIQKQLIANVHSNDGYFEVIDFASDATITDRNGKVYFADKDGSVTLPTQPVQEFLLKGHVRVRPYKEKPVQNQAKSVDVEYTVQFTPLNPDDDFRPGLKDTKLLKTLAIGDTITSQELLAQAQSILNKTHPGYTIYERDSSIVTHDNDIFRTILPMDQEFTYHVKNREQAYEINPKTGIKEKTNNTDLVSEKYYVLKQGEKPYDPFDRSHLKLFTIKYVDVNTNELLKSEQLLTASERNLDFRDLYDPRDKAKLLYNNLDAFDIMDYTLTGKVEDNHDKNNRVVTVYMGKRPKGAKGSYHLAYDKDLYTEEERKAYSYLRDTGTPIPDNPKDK
Kind of assay: S. pyogenes streptokinase expression inhibitors, potency, dose response, plasminogen activation absorbance, OD405 (AID 1914).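 Note: secreted streptokinase activity via plasminogen activation per viability signal from cell pellet.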 In kind it is functional, Streptococcus pyogenes M1 GAS.

Chain of Cytochrome P450 2D6 (P10635 whole entry): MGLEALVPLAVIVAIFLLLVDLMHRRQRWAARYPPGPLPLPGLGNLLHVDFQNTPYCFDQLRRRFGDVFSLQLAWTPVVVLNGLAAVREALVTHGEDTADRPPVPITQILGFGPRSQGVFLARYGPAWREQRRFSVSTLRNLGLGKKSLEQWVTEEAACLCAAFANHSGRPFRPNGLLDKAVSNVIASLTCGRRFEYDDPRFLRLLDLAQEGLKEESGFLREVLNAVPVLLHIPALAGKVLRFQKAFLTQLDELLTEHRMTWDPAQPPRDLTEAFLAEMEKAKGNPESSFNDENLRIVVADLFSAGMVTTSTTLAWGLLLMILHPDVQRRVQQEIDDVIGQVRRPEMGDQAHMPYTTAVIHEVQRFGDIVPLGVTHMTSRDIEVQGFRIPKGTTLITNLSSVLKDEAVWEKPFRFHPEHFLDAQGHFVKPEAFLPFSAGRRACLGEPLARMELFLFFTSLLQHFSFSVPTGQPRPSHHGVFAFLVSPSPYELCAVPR
Chain of Cytochrome P450 2C9 (P11712 whole entry): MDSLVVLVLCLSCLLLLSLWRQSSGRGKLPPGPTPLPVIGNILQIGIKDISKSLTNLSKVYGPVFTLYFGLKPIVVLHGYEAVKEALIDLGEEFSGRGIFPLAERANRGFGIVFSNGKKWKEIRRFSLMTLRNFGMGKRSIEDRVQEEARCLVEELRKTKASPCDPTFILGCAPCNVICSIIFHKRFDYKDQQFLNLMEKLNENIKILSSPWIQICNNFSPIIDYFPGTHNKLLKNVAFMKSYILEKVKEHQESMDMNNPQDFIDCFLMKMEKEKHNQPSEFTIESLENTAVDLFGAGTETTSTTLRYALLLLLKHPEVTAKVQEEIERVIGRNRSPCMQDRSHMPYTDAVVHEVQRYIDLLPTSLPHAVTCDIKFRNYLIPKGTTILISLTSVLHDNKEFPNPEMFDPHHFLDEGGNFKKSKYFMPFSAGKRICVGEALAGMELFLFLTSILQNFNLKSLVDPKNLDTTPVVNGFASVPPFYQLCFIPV
Chain of Cytochrome P450 3A4 (P08684 whole entry): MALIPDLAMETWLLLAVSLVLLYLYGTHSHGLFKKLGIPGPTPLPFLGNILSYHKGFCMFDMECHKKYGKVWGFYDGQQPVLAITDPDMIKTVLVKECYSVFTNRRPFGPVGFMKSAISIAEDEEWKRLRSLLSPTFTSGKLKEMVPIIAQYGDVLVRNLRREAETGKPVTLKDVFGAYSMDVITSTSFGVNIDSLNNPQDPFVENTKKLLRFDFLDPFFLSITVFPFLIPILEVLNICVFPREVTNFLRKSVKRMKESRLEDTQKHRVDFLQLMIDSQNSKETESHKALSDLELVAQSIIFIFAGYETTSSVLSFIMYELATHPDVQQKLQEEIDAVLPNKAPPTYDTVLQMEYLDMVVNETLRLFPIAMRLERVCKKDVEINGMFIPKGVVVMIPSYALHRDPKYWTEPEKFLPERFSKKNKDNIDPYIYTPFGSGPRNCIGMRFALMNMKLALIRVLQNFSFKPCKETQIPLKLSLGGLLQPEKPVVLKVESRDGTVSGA

Regarding `CC1(C)CO[C@H](CC(=O)O)CN1`, the AC50 in assay [1] is 39.8 µM (inconclusive); in [2] it was 31.6 µM (inconclusive). For the compound `COc1ccccc1CNCc1cccs1`, the AC50 in [3] is 17.8 µM (inconclusive).

For the compound `O=c1c(-c2ccc(F)cc2)nc2cnc(N3CCOCC3)nc2n1Cc1ccc(F)cc1`, the AC50 in [2] was 20 µM (inconclusive); in assay [4], 39.8 µM (inconclusive).

Regarding `COc1ccc(Oc2nc(C)cc(C)c2S(=O)(=O)c2ccc(C)cc2)cc1`, the AC50 in assay [3] is 1.12 µM (inconclusive). As to `O=[N+]([O-])c1cc(C(F)(F)F)ccc1NCCN=C(S)Nc1ccc(Cl)cc1`, the half-maximal activity concentration (AC50) in assay [5] is 3.04 µM (active). Moreover, the EC50 in assay [6] was 11.7 µM (active); in assay [7], 7.65 µM (active); in assay [8], 14.9 µM (active); in [9] it was 7.05 µM (active). For `COc1cc(OC)cc(C(=O)N/N=C/c2ccc(OC)c(COc3ccc(F)cc3)c2)c1`, in assay [10], the EC50 is > 53 µM (inactive). Turning to `O=C(SCc1cccc2ccccc12)c1ccc(Cl)cc1`, the AC50 in assay [2] is 0.794 µM (inconclusive).

For the compound `COc1ccc(OC)c(NC(=O)CC(Cc2ccccc2OC)C(=O)O)c1` (configuration not stated), the AC50 in assay [2] is 0.0316 µM (inconclusive). Regarding `NS(=O)(=O)c1ccc(/N=N\c2nc3c(O)nc(O)nc3[nH]2)cc1`, the AC50 in [3] is 0.631 µM (inconclusive). Take `O=c1c(-c2ccccc2)nc2cnc(N3CCOCC3)nc2n1Cc1cccs1`: the AC50 in assay [1] was 20 µM (inconclusive); in assay [2] it was 2.51 µM (inconclusive).

`N#Cc1cc([N+](=O)[O-])ccc1NC(=O)COC(=O)C12CC3CC(CC(C3)C1)C2`: the IC50 in assay [11] was 14.4 µM (not active). As to `CN(C1CCCCC1)S(=O)(=O)c1ccc(S(=O)(=O)N2CCCC2)cc1`, the IC50 in [11] is given as 10.4 µM (not active).

As to `COc1cccc(C2C3=C(CC(C)(C)CC3=O)OC(N)=C2[N+](=O)[O-])c1` (configuration not stated), the half-maximal activity concentration (AC50) in [1] is 12.6 µM (inconclusive); in [3] it was 15.8 µM (inconclusive). On to `Cc1cccc(Cc2cnc(NC(=O)C3=NCCN3)s2)c1`, for which the IC50 in assay [12] is 4.6 µM (active).

In the case of `CC1CCCCN1C(=O)c1cc(-c2ccc(Cl)c(Cl)c2)on1` (configuration not stated), the IC50 in assay [11] is reported as 3.9 µM (not active).

For `COCc1c(C(N)=O)nnn1-c1nonc1N`, the AC50 in [2] is 25.1 µM (inconclusive). As for `O=C(Nc1ccccc1)N1CC[C@@]2(CCCN(C(=O)c3cccc(F)c3)C2)C1`, the AC50 in [3] is 25.1 µM (inconclusive). Take `O=[N+]([O-])C(=C1Nc2ccccc2N1)C(Cl)=C(Cl)Cl`: the IC50 in assay [11] is 27.8 µM (not active). As to `Cc1cccc(Oc2ccc(NC(=O)c3ccccc3C(=O)O)cc2)c1C`, the EC50 in [10] is 8.97 µM (active).

Take `O=C(COC(=O)CC1c2ccccc2CCN1S(=O)(=O)c1ccccc1)Nc1ccccc1` (configuration not stated): the IC50 in assay [11] is recorded as 8.09 µM (not active). Consider `N#CCCn1c(=O)c(-c2ccc(Cl)cc2)nc2cnc(N3CCNCC3)nc21`, for which the AC50 in [3] is 25.1 µM (inconclusive). Same read-out and setting: the figure for `CC(C)Oc1cccnc1N(C)C1CCN(Cc2ccccc2)CC1` is 15.8 µM (inconclusive). `N[C@H](C(=O)O)c1cccc(O)c1`: in assay [2], the AC50 was 39.8 µM (inconclusive).

As for `CC1(C)S[C@@H]2[C@H](C(=O)O)N=C(Cc3ccccc3)N2[C@H]1C(=O)O`, the AC50 in assay [2] is 6.31 µM (inconclusive). Take `Cc1noc(NS(=O)(=O)c2ccc(NC(=O)c3ccc(Br)o3)cc2)c1C`: the figures for the AC50 in assay [1] and in assay [3] were 14.1 µM (inconclusive) and 39.8 µM (inconclusive), respectively. Take `COc1ccc(C(=O)N2CCC3(CCCN(c4ncccn4)C3)CC2)cc1`: the AC50 in assay [2] was 20 µM (inconclusive); in assay [4] it was 31.6 µM (inconclusive); in assay [3], 39.8 µM (inconclusive). As to `CC(C)NC(=S)NC(=O)c1ccc(-c2ccccc2)cc1`, the EC50 in assay [10] was > 53 µM (inactive).

Take `Cc1ccnc(NC(=O)CCCOc2ccc(Cl)cc2C)c1`: the IC50 in assay [11] was 0.444 µM (not active). As to `O=C(Nc1cccc(C(F)(F)F)c1)N(Cc1ccc(Cl)cc1)CC(O)C(F)(F)F` (configuration not stated), the EC50 is 19.6 µM (active) in assay [6] and 23.8 µM (active) in assay [8]. In addition, the AC50 in assay [3] is 22.4 µM (inconclusive). Take `COc1ccc(NC(=O)C2CCCN(S(=O)(=O)c3cccc4cccnc34)C2)c(OC)c1` (configuration not stated): in [11], the IC50 is recorded as 4.57 µM (not active). On the same count and under the same terms, the figure for `CS(=O)(=O)N1CCc2cc(NC(=O)c3ccc(Cl)cc3Cl)ccc21` is 13.7 µM (not active); for `C/C(=N\NC(=O)COc1ccc(C(C)(C)C)cc1)c1ccccc1` it is 5.74 µM (not active). Regarding `O=[N+]([O-])c1cc(C(F)(F)F)ccc1NCCNC(=S)Nc1ccc(Cl)cc1`, the IC50 in [11] was 7.92 µM (not active). For the same compound, the EC50 in assay [13] was > 150 µM (not active). `Cn1c(=O)c2[nH]c(SCCN3CCOCC3)nc2n(C)c1=S`: the values for the AC50 in [1], in assay [2] and in assay [3] were 6.31 µM (inconclusive), 0.631 µM (inconclusive) and 3.16 µM (inconclusive), respectively. Take `Cc1nc2ncnn2c(C)c1CCC(=O)NCCC1=CCCCC1`: the AC50 in assay [1] is 14.1 µM (inconclusive); in assay [3], 15.8 µM (inconclusive). On to `O=C(C1=C[C@H](c2ccc(C(F)(F)F)cc2)C[C@H](OCc2ccc(CO)cc2)O1)N1CCCCCCC1`, for which, in assay [11], the IC50 is recorded as 14.8 µM (not active). As to `Cc1cccc(Oc2ccc(S(=O)(=O)N3CCCCC3)cc2N)c1`, the IC50 in assay [11] is on record as 11.2 µM (not active).

Consider `CC(C)N1CCC(=NNC(=O)c2ccc(Br)o2)CC1`, for which the AC50 in assay [2] is 17.8 µM (inconclusive); in assay [4], 10 µM (inconclusive).

As for `COc1ccc2cc(C(=O)C3CCCN(Cc4ccccn4)C3)ccc2c1` (configuration not stated), in assay [12], the IC50 was 5.03 µM (active). For the compound `C=CCNc1cnn(-c2ccc(C)cc2)c(=O)c1Sc1ccc(C)cc1`, in assay [11], the IC50 is given as > 50 µM (not active). For `COc1cc2c(cc1OC)CN(CCC(=O)c1ccc(Br)cc1)CC2`, the IC50 in [12] is 16.5 µM (active). As for `O=C(Nc1cccc(Br)c1)/C(=C\c1cccnc1)NC(=O)c1ccco1`, the AC50 was 39.8 µM (inconclusive) in assay [1] and 31.6 µM (inconclusive) in assay [2].

`CCOC(=O)COc1ccc2c(=O)c(-c3ccccc3)coc2c1`: the IC50 in assay [12] was < 0.1 µM (active).
